Experimental data from PMC6480038, “In Vitro and In Silico Acetylcholinesterase Inhibitory Activity of Thalictricavine and Canadine and Their Predicted Penetration across the Blood-Brain Barrier” (Molecules, 2019).

Key:
in vitro = settings: pig, PAMPA, pH 7.4
[1] = biological target: T1, human recombinant acetylcholinesterase (hAChE) (Homo sapiens, UniProt P22303); assay: biochemical; settings: for SI (selectivity index for hAChE): ratio IC50 hBChE / IC50 hAChE; for IC50: recombinant hAChE, ATCh substrate, pH 7.4, 37 °C, mean ± SEM of three measurements
T1 construct: purchased Sigma-Aldrich (Prague, Czech Republic)
Excerpt: (§1) Human recombinant acetylcholinesterase (hAChE; EC 3.1.1.7), human plasma butyrylcholinesterase (hBChE; EC 3.1.1.8), 5,5′-dithiobis(2-nitrobenzoic acid) (Ellman’s reagent, DTNB), phosphate buffer (PB, pH 7.4), dimethyl sulfoxide (DMSO), acetylthiocholine (ATCh), and butyrylthiocholine (BTCh) were purchased from Sigma-Aldrich (Prague, Czech Republic). Polystyrene Nunc 96-well microplates with flat bottom shape (ThermoFisher Scientific, Waltham, MA, USA) were utilized for measuring purposes of cholinesterase assays and the kinetic inhibition study.
(§2) The hAChE and hBChE inhibitory activity of the tested compounds was determined using a modified Ellman’s method. All the assays were carried out in 0.1 M KH2PO4/K2HPO4 buffer, pH 7.4. Enzyme solutions were prepared at an activity of 2.0 units/mL in 2 mL aliquots. The assay medium ([…]) consisted of 40 µL of 0.1 M phosphate buffer (pH 7.4), 20 µL of 0.01 M DTNB, 10 µL of enzyme, and 20 µL of 0.01 M substrate (ATCh iodide solution). […] The reaction started by addition of 20 µL of the substrate (ATCh for hAChE, BTCh for hBChE). […] Each concentration was assayed in triplicate.

[2] = biological target: T2, human plasma butyrylcholinesterase (hBChE) (Homo sapiens, UniProt P06276); assay: hBChE inhibition, modified Ellman's method; type: biochemical; settings: BTCh substrate, pH 7.4, 37 °C, mean ± SEM of three measurements
T2 construct: Recombinant hAChE and plasma hBChE were used as sources of cholinesterases; purchased Sigma-Aldrich (Prague, Czech Republic); host or cells: human plasma
Excerpt: as §1, §2

recombinant hAChE = biological target: T3, recombinant hAChE (Homo sapiens, UniProt P22303); assay: Kinetic study of hAChE inhibition; type: biochemical; settings: for type of inhibition: nonlinear regression with sum-of-squares F-test, p < 0.05; for Ki: nonlinear regression, ATCh 156–1250 µM
T3 construct: purchased Sigma-Aldrich (Prague, Czech Republic)
Excerpt: The mode of interaction of the hAChE inhibition was elucidated for 1 and 2 using a kinetic study in order to gain information about the mode of inhibition and the binding site of the isolated alkaloids. Recombinant hAChE was used in this kinetic analysis of 1 and 2. […] The type of the inhibition mechanism was clarified by a nonlinear regression analysis. The results computed for each model type of inhibition (competitive, non-competitive, uncompetitive and mixed) were compared with the sum-of-squares F-test.
The kinetic study of hAChE inhibition was performed by using Ellman’s method (described above). […] Reactions were performed in triplicate. Vmax and Km values, respectively, of the Michaelis-Menten kinetics and Ki were calculated by non-linear regression from the substrate velocity curves. Linear regression was used for calculation of Lineweaver-Burk plots. All calculations were performed using the GraphPad Prism software.

[3] = tested on: selected human carcinoma and non-carcinoma cells; settings: read-out: cytotoxicity IC50; cited from earlier work
[4] = Table S1, predictive penetration into the CNS
[5] = tested on: AChE (red blood cell ghosts); settings: earlier screening, 25 °C, red blood cell ghosts as AChE source; cited from earlier work

T1 sequence (P22303 32-614): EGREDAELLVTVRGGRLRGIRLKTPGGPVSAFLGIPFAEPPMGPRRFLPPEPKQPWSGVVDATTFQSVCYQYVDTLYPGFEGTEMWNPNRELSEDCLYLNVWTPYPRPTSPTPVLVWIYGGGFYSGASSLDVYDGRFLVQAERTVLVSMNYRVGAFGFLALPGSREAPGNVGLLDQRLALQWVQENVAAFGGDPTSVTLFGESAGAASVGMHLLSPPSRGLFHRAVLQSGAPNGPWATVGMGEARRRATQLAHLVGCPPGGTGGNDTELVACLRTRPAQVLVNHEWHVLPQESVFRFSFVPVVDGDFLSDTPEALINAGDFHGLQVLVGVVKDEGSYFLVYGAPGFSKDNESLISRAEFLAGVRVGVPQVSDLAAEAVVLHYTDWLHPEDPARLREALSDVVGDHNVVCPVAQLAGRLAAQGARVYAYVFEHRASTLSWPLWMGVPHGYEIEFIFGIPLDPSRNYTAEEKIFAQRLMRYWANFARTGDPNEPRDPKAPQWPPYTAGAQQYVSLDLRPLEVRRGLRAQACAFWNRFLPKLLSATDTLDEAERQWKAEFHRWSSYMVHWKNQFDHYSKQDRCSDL
T3 sequence (P22303 32-614): as above
T2 sequence (P06276 29-602): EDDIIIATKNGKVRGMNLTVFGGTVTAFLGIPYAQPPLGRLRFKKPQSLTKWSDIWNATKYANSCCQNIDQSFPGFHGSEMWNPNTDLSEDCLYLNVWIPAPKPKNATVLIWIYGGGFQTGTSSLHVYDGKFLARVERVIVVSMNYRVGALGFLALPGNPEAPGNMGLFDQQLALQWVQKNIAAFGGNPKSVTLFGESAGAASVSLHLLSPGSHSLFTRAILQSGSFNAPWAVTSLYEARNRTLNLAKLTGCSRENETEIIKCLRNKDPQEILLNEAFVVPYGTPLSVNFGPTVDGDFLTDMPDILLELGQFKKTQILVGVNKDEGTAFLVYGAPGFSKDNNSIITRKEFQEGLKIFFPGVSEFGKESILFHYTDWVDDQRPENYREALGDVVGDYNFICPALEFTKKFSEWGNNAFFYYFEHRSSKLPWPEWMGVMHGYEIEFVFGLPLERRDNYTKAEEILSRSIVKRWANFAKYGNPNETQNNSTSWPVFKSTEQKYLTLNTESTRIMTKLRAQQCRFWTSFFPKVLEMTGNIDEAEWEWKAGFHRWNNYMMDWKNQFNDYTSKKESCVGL

Cn1c(=O)c2c(ncn2C)n(C)c1=O [caffeine, reference compound]
Papp (in vitro): 0.3 ×10⁻⁶ cm/s

COc1ccc2c(c1OC)CN1CCc3cc4c(cc3[C@H]1[C@H]2C)OCO4 [Compound 1, (+)-thalictricavine]
SI (selectivity index for hAChE) [1]: >263 | IC50 [1]: 380 ± 50 nM | IC50 [2]: > 100000 nM | type of inhibition (recombinant hAChE): competitive | Ki (recombinant hAChE): 174 ± 56.9 nM | Papp (in vitro): 2.5 ± 0.1 ×10⁻⁶ cm/s | IC50 [3]: > 10000 nM

COc1ccc2c(c1OC)CN1CCc3cc4c(cc3[C@H]1C2)OCO4 [Compound 2, (+)-canadine]
SI (selectivity index for hAChE) [1]: >143 | IC50 [1]: 700 ± 70 nM | IC50 [2]: > 100000 nM | type of inhibition (recombinant hAChE): competitive | Ki (recombinant hAChE): 129 ± 44 nM | PAMPA-BBB prediction [4]: CNS + | Papp (in vitro): 5 ± 0.3 ×10⁻⁶ cm/s | IC50 value for AChE [5]: low micromolar range | IC50 [3]: > 10000 nM
